Source: US20090318509A1, “Oxime Derivatives as Inhibitors of Macrophage Migration Inhibitory Factor” (priority 2006, published 2009)
pIC50: −log10 of the molar value. Entries after “also recorded” stand apart in the source; their conditions may differ. Read-outs that look alike come from different tables or passages of the source.

Experiments:
MIF [1] = molecular target: T1, MIF (Homo sapiens, UniProt P14174); experiment: MIF dopachrome tautomerase activity inhibition; type: biochemical; design: 1 μL of MIF solution (800-900 ng/mL)
T1 sequence (P14174 2-115 limits assumed): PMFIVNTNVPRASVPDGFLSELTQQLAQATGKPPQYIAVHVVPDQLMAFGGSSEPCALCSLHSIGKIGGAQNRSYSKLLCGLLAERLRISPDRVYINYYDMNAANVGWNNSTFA
Experimental: MIF tautomerase activity was measured by UV-Visible recording spectrophotometry (SHIMADZU, UV 1600U). A fresh stock solution of L-dopachrome methyl ester was prepared at 2.4 mM through oxidation of L3,4-dihydroxyphenylalanine methyl ester with sodium periodate. 1 μL of MIF solution (800-900 ng/mL) and 1 μL of a DMSO solution with various concentrations of the enzymatic inhibitor were added into a plastic cuvette (10 mm, 1.5 mL) containing 0.7 mL assay buffer (1× potassium phosphate, pH 7.2). The L-dopachrome methyl ester solution (0.3 mL) was added to the assay buffer mixture.

MIF [2] = molecular target: T1, MIF; experiment: MIF glucocorticoid-regulating (proinflammatory) activity in LPS-treated macrophages, TNF-α production; type: cell-based; design: dexamethasone plus MIF (3 nM purified native MIF); host or cells: added to monocyte-derived macrophages from human peripheral blood
Experimental: (§1) TNF-α production was then measured. The data shown are mean ±SD of triplicate wells in experiments that were repeated twice.

antibacterial effect = conditions: preliminary studies
[3] = test system: TNF release by LPS-stimulated human macrophages; experiment: TNF release from LPS-stimulated macrophages; type: cell-based; conditions: FIG. 4
Experimental: as §1
It has been shown that the macrophage is an abundant source of MIF (Calandra et al., 1994), which is released after LPS stimulation. This led to an examination of the autocrine and paracrine activity of secreted MIF in vitro.

CLP sepsis = experiment: cecal ligation and puncture (CLP) sepsis survival; type: in vivo; conditions: mice, intraperitoneal, first injection 24 hours after CLP, further injections day 2 and 3, FIG. 6
Experimental: FIG. 6 is a graph showing that Cyc-Oxi-II is protective even when given 24 h after the induction of sepsis.
An additional two injections were given, on day 2 and day 3. Thirteen mice were tested.

[4] = preliminary acute toxicity screening; type: in vivo
Source text: Design of Cyc-Oxi-11. ISO-1, the pharmacological inhibitor of MIF, neutralizes exogenous and endogenous MIF in in vitro and in vivo models. This indicates the successful application of chemical approaches to antagonize MIF biological activities. Although ISO-1 has significant anti-inflammatory activity, development of better inhibitors was desired. […] Representative structures of the novel oxime scaffold are presented in Table I, with their IC50 of inhibiting MIF dopachrome tautomerase activity.

endotoxemia and sepsis = conditions: intraperitoneal, 40 mg/kg; Al-Abed et al., 2005; cited from earlier work
[5] = test system: TNF release by LPS-treated macrophages; conditions: in vitro; cited from earlier work
[6] = Table 2, additional MIF inhibitors, read-out: IC50 MIF inhibitory activity in vitro
[7] = Table 1, left column pair, read-out: IC50 inhibition of MIF tautomerase activity

CC(C)(C)OC(=O)NOC(=O)C1CC1 [BKII-91]
pIC50 (MIF [1]; [6]): 5.72

CC(C)(C)OC(=O)NOC(=O)c1ccc(I)cc1 [BKIII-9Y]
pIC50 (MIF [1]; [6]): 5.77

COc1ccc(C(=O)ON=Cc2ccc(O)cc2)cc1 [Compound 4]
pIC50 (MIF [1]; read-out: IC50 of MIF dopachrome tautomerase activity): 5.96

CC(C)(C)OC(=O)NOC(=O)c1ccccc1 [BKII-98]
pIC50 (MIF [1]; [6]): 6.64

CC(C)(C)OC(=O)NOC(=O)c1ccc(Br)cc1 [BKIII-11Y]
pIC50 (MIF [1]; [6]): 5.89

O=C(O/N=C/c1ccc(O)cc1)C1CCC1
pIC50 (MIF [1]; [7]): 4.92

O=C(O/N=C/c1ccc(O)cc1)C1CCCC1
pIC50 (MIF [1]; [7]): 5.32

CC(C)(C)OC(=O)NOC(=O)c1ccc(F)cc1 [BKIII-8W]
pIC50 (MIF [1]; [6]): 6.57

O=C(O/N=C/c1ccc(O)cc1)C1CCCCC1 [Cyc-Oxi-11, (E)-4-hydroxybenzaldehyde O-cyclohexanecarbonyloxime]
inhibition of MIF-dependent interference with glucocorticoids (MIF [2]; LPS-stimulated human macrophages, FIG. 3): significantly inhibited; also recorded: suppresses the ability of MIF to regulate glucocorticoids | potency versus ISO-1 as inhibitor of MIF proinflammatory activity in vitro (MIF [2]; relative to ISO-1): 30 fold | antibacterial effect (antibacterial effect): negative | inhibition of TNF release [3]: inhibits TNF release in vitro; also recorded: in a dose-dependent manner, inhibits TNF release; also recorded: inhibits MIF induction of TNF release | potency versus ISO-1 in MIF tautomerase inhibition (MIF [1]; relative to ISO-1): 30 fold | deaths / protection after CLP (CLP sepsis): considerably reduced the deaths caused by CLP | deaths / protection after CLP (CLP sepsis; listed as Cyc-Oxi-II): protective | acute toxicity, intraperitoneal injection ([4]; doses up to 100 mg/Kg): no evidence of toxicity | toxicity at high doses ([4]; high doses, both in vitro and in vivo): lacks obvious toxicity

COC(=O)C[C@@H]1CC(c2ccc(O)cc2)=NO1 (racemic) [ISO-1, (S,R)-3-(4-hydroxyphenyl)-4,5-dihydro-5-isoxazole acetic acid methyl ester]
survival rate (endotoxemia and sepsis): increased the survival rate | inhibition of TNF release [5]: 60%

COc1ccc(C(=O)ONC(=O)OC(C)(C)C)cc1 [BKII-99]
pIC50 (MIF [1]; [6]): 5.92

COc1ccc(OC(=O)O/N=C/c2ccc(O)c(F)c2)cc1 [Compound 5, (E)-3-fluoro-4-hydroxybenzaldehyde O-4′-methoxyphenyl carbonyloxime]
improvement of inhibition of dopachrome tautomerase activity over parent compound (MIF [1]; mono-fluorinated analogue versus parent): 63%

CC(C)(C)OC(=O)NOC(=O)c1c(F)c(F)c(F)c(F)c1F [BKIII-6W]
pIC50 (MIF [1]; [6]): 3.93

CC(C)(C)OC(=O)NOC(=O)c1ccc(OC(=O)c2ccc(O)cc2)cc1 [BKIII-6Y]
pIC50 (MIF [1]; [6]): 4.30

CC(C)(C)OC(=O)NOC(=O)C1CCC1 [BKII-92]
pIC50 (MIF [1]; [6]): 6.43

CC(C)(C)OC(=O)NNC(=O)C1CCCCC1 [BKII-90]
pIC50 (MIF [1]; [6]): 4.22

CC(C)(C)OC(=O)NOC(=O)c1ccc(Cl)cc1 [BKIII-8Y]
pIC50 (MIF [1]; [6]): 6.06

CC(C)(C)OC(=O)NOC(=O)C1CCCCC1 [BKII-85]
pIC50 (MIF [1]; [6]): 4.71

CC(C)(C)OC(=O)NOC(=O)C1CCCC1 [BKII-93]
pIC50 (MIF [1]; [6]): 6.15

CC(C)(C)OC(=O)NOC(=O)c1ccc(C(F)(F)F)cc1 [BKIII-9W]
pIC50 (MIF [1]; [6]): 4.16
